Values of other authors, collected in paper PMC3026871 (Cancer chemotherapy and pharmacology, 2010).

Target: Aurora A kinase in skin basal epithelial cells (Homo sapiens, UniProt O14965)
Settings: subsequent studies, similar times, identical assays; cited from earlier work

Sequence of Aurora A kinase in skin basal epithelial cells (O14965 whole entry): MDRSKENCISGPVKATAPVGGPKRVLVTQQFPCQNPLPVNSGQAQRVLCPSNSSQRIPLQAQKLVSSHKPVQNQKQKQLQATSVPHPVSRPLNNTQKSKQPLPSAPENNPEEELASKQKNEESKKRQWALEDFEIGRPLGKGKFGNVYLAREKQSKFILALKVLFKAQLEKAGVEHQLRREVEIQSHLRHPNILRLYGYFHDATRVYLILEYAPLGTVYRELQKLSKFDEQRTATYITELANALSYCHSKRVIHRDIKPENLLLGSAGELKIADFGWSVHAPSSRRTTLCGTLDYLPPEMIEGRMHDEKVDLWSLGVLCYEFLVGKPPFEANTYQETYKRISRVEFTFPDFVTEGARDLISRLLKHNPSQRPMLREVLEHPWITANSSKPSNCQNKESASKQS

For COc1cc(Nc2ncc3c(n2)-c2ccc(Cl)cc2C(c2c(F)cccc2OC)=NC3)ccc1C(=O)O [MLN8237], the “pharmacodynamic activity in skin biopsies” value is given as “dose-dependent pharmacodynamic activity in skin biopsies”.
